Assay type in all cases: functional, cell-based
Data set [1] concerns the target T1, Solute carrier family 22 member 3 (Homo sapiens, UniProt O75751).
T1 sequence (O75751 whole entry): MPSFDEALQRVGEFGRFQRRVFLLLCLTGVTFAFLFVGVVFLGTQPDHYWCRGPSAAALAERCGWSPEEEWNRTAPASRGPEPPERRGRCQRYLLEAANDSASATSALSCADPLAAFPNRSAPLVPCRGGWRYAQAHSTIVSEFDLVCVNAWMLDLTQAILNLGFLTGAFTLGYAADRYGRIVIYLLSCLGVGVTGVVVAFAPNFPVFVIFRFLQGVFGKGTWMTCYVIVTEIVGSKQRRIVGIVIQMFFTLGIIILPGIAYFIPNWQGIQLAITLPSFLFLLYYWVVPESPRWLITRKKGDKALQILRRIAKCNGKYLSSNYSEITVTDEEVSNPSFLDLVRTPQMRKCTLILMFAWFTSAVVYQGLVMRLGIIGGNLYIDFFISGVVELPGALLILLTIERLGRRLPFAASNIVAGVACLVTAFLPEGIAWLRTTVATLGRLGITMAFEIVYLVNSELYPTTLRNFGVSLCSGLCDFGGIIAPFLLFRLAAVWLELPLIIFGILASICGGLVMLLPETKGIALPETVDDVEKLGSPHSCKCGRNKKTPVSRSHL
Nature of the data set: (§1) TP_TRANSPORTER: uptake in OCT3-expressing HEK293 cells.

The target of data set [2] is T1, Solute carrier family 22 member 3. Description: TP_TRANSPORTER: inhibition of MPP+ uptake in OCT3-expressing HEK293 cells.
Substrate in data set [3]: NC[C@H](O)c1ccc(O)c(O)c1
Described as §1.

Regarding `C[n+]1ccc(-c2ccccc2)cc1`, the Activity entry in data set [1] was “substrate [+]”.

As to `Nc1ncnc2c1ncn2CCOCP(=O)(O)O` [ADEFOVIR], the Activity entry in data set [1] was “substrate [+]”.

As to `COc1cc2c(c(OC)c1OC)-c1ccc(OC)c(=O)cc1[C@@H](NC(C)=O)CC2` [COLCHICINE], affinity in data set [2] was put at a Ki of 120 nM.

Turning to `CC(C)N1/C(=C\c2cc[n+](C(C)C)c3ccccc23)C=Cc2ccccc21` [DISPROCYNIUM24], the Ki (commonly the equilibrium dissociation constant of an inhibitor or competing ligand from its target) in data set [2] worked out at 15 nM.

As to `NCCc1c[nH]c2ccc(O)cc12` [SEROTONIN], in data set [1], the Activity entry is “substrate [+]”.

Turning to `NCCc1ccc(O)cc1` [TYRAMINE], the Activity result in data set [1] is “substrate [+]”.

B1: Solute carrier family 22 member 3 (Homo sapiens) (protein)
chain: MPSFDEALQRVGEFGRFQRRVFLLLCLTGVTFAFLFVGVVFLGTQPDHYWCRGPSAAALAERCGWSPEEEWNRTAPASRGPEPPERRGRCQRYLLEAANDSASATSALSCADPLAAFPNRSAPLVPCRGGWRYAQAHSTIVSEFDLVCVNAWMLDLTQAILNLGFLTGAFTLGYAADRYGRIVIYLLSCLGVGVTGVVVAFAPNFPVFVIFRFLQGVFGKGTWMTCYVIVTEIVGSKQRRIVGIVIQMFFTLGIIILPGIAYFIPNWQGIQLAITLPSFLFLLYYWVVPESPRWLITRKKGDKALQILRRIAKCNGKYLSSNYSEITVTDEEVSNPSFLDLVRTPQMRKCTLILMFAWFTSAVVYQGLVMRLGIIGGNLYIDFFISGVVELPGALLILLTIERLGRRLPFAASNIVAGVACLVTAFLPEGIAWLRTTVATLGRLGITMAFEIVYLVNSELYPTTLRNFGVSLCSGLCDFGGIIAPFLLFRLAAVWLELPLIIFGILASICGGLVMLLPETKGIALPETVDDVEKLGSPHSCKCGRNKKTPVSRSHL
Regarding B1, in data set [3], the Km – broadly, the substrate concentration at which the rate is half of its maximum – came to 510 µM.

The values above are taken from ChEMBL document CHEMBL2074295, “Molecular identification of the corticosterone-sensitive extraneuronal catecholamine transporter” (Nat Neurosci, 1998).
